Results from US9878982B2, “Pyridine derivatives and anti-mycobacterial use thereof” (priority 2014, dated 2018).
Values after ≈ are worked out from the molar mass of the structure shown.

How the values were obtained:
[1] = tested on: rifampicin-resistant M. tuberculosis strain (rRMP); test: microbe, parasite or virus in culture; format: cell-based, Mycobacterium tuberculosis; conditions: for MIC: Mycobacterium tuberculosis, read-out: MABA MIC vs. rRMP, rifampicin-resistant M. tuberculosis strain; for MIC / MABA MIC vs. rRMP: two values per compound; for MABA MIC vs. rRMP: rifampicin-resistant M. tuberculosis strain
[2] = tested on: isoniazide-resistant Mycobacterium tuberculosis strains (rINH); test: microbe, parasite or virus in culture; format: cell-based; conditions: for MIC: Mycobacterium tuberculosis, read-out: MABA MIC vs. rINH, isoniazide-resistant strain; for MIC / MABA MIC vs. rINH: two values per compound; for MABA MIC vs. rINH: isoniazide-resistant strain

| Compound | MIC [1] [µM] | MABA MIC vs. rRMP [1] [µM] | MIC [2] [µM] | MABA MIC vs. rINH [2] [µM] | inhibitory activity against rifampin-resistant strain (in words) [1] | inhibitory activity against isoniazid-resistant strain (in words) [2] |
| --- | --- | --- | --- | --- | --- | --- |
| COc1ncc(-c2ccccc2)cc1C(c1ccccc1)C(O)(CCN(C)C)c1cccc2ccccc12 (stereo not drawn) [Compound 9, 4-(dimethylamino)-1-(2-methoxy-5-phenylpyridin-3-yl)-2-(naphthalen-1-yl)-1-phenylbutan-2-ol] | 0.9 (≈ 0.452 µg/mL) | 0.91 | 0.47 (≈ 0.236 µg/mL) | 0.44 | – | – |
| CO[C@H]1/C=C/O[C@@]2(C)Oc3c(C)c(O)c4c(O)c(c(/C=N/N5CCN(C)CC5)c(O)c4c3C2=O)NC(=O)/C(C)=C\C=C\[C@H](C)[C@H](O)[C@@H](C)[C@@H](O)[C@@H](C)[C@H](OC(C)=O)[C@@H]1C [rifampin, reference compound] | > 4 | – | < 0.016 | – | – | – |
| COc1ncc(-c2ccc(Cl)cc2)cc1C(c1ccccc1)C(O)(CCN(C)C)c1cccc2ccccc12 (stereo not drawn) [Compound 115, 1-(5-(4-chlorophenyl)-2-methoxypyridin-3-yl)-4-(dimethylamino)-2-(naphthalen-1-yl)-1-phenylbutan-2-ol] | 0.18 (≈ 0.0967 µg/mL) | – | 0.11 (≈ 0.0591 µg/mL) | 0.12 | comparable to that of the marketed anti-TB drug, Bedaquiline | comparable to that of the marketed anti-TB drug, Bedaquiline |
| COc1ncc(-c2ccc(Br)cc2)cc1C(c1ccccc1)C(O)(CCN(C)C)c1cccc2ccccc12 (stereo not drawn) [Compound 133, 1-(5-(4-bromophenyl)-2-methoxypyridin-3-yl)-4-(dimethylamino)-2-(naphthalen-1-yl)-1-phenylbutan-2-ol] | 0.24 (≈ 0.14 µg/mL) | 0.34 | 0.22 (≈ 0.128 µg/mL) | 0.12 | comparable to that of the marketed anti-TB drug, Bedaquiline | comparable to that of the marketed anti-TB drug, Bedaquiline |
| NNC(=O)c1ccncc1 [isoniazide, isoniazid, reference compound] | 0.83 (≈ 0.114 µg/mL) | 0.65 | > 8 | – | – | – |
| COc1nc2ccc(Br)cc2cc1[C@@H](c1ccccc1)[C@@](O)(CCN(C)C)c1cccc2ccccc12 [Bedaquiline, reference compound] | 0.12 (≈ 0.0667 µg/mL) | 0.13 | 0.07 (≈ 0.0389 µg/mL) | 0.09 | – | – |
